Source: US8247211B2, “Glycopeptide antibiotics” (American Cyanamid Company, priority 2001, dated 2012)
Values after ≈ are worked out from the molar mass of the structure shown.

Key:
Assay in all cases: In vitro antibacterial evaluation: minimum inhibitory concentration (MIC), broth dilution method
Type in all cases: cell-based
Enterococcus sp. = system: Enterococcus sp.
Summary of the method: (§1)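 Inoculum: 5×10^5 CFU/mL. Range: 64-0.06 μg/mL. Medium: Muller-Hinton II […]; NCCLS M7-A2 broth dilution. Endpoint: lowest concentration inhibiting growth. Strains include methicillin-, penicillin- and/or vancomycin-resistant clinical isolates.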

Escherichia coli = system: Escherichia coli
Summary of the method: as §1

Staphylococcus sp. = details: for MIC Staphylococcus aureus (ATCC 29213) / MIC Staphylococcus aureus (GC 1131) / MIC Staphylococcus aureus (GC 3051) / MIC Staphylococcus aureus (GC 3053) / MIC Staphylococcus aureus (GC 4541) / MIC Staphylococcus aureus (GC 4542) / MIC Staphylococcus aureus (GC 4544) / MIC Staphylococcus aureus (GC 4545): broth dilution, 18 hours at 35° C.
Summary of the method: as §1

Streptococcus sp. = system: Streptococcus sp.
Summary of the method: as §1

[1] = broth dilution, inoculum 5×10^5 CFU/mL, 18 hours at 35° C.

**Q.** What does the source list for `CC(c1ccccc1)C1NC(=O)CNC(=O)C(CO)NC(=O)C(C(O)C2CNC(=N)N2C2OC(CO)C(O)C(O)C2O)NC(=O)C(C(O)C2CNC(=N)N2)NC(=O)C(Cc2ccc(OC3OC(CO)C(OC4OC5COC(c6ccc(Oc7ccc(C(C)(C)C)cc7)cc6)OC5C(O)C4O)C(O)C3O)cc2)NC1=O` (stereo not drawn) [Example 181, Cyclo[glycyl-β-methylphenylalanyl-O-[4-O-[4,6-O-[4-(4-tert-butylphenoxy)benzylidene]hexopyranosyl]hexopyranosyl]tyrosyl-3-(2-iminoimidazolidin-4-yl)seryl-3-(3-hexopyranosyl-2-iminoimidazolidin-4-yl)serylseryl]]?
**A.** MIC Enterococcus avium (GC 4558) (Enterococcus sp.; [1]): 4 µg/mL (≈ 2.61 µM); MIC Enterococcus faecalis (ATCC 29212) (Enterococcus sp.; [1]): 2 µg/mL (≈ 1.31 µM); MIC Enterococcus faecalis (GC 2242) (Enterococcus sp.; [1]): 2 µg/mL (≈ 1.31 µM); MIC Enterococcus faecalis (GC 2691) (Enterococcus sp.; [1]): 4 µg/mL (≈ 2.61 µM); MIC Enterococcus faecalis (GC 3059) (Enterococcus sp.; [1]): 4 µg/mL (≈ 2.61 µM); MIC Enterococcus faecalis (GC 4552) (Enterococcus sp.; [1]): 2 µg/mL (≈ 1.31 µM); MIC Enterococcus faecalis (GC 4553) (Enterococcus sp.; [1]): 1 µg/mL (≈ 0.653 µM); MIC Enterococcus faecalis (GC 4554) (Enterococcus sp.; [1]): 2 µg/mL (≈ 1.31 µM); MIC Enterococcus faecalis (GC 6189) (Enterococcus sp.; [1]): 2 µg/mL (≈ 1.31 µM); MIC Enterococcus faecium (GC 2243) (Enterococcus sp.; [1]): 2 µg/mL (≈ 1.31 µM); MIC Enterococcus faecium (GC 4556) (Enterococcus sp.; [1]): 4 µg/mL (≈ 2.61 µM); MIC Enterococcus faecium (GC 4557) (Enterococcus sp.; [1]): 4 µg/mL (≈ 2.61 µM); MIC Enterococcus faecalis (ATCC 29212) (Enterococcus sp.; strain ATCC 29212): 2 µg/mL (≈ 1.31 µM); MIC Enterococcus faecalis (GC 2242) (Enterococcus sp.; strain GC 2242): 2 µg/mL (≈ 1.31 µM); MIC Enterococcus faecium (GC 2243) (Enterococcus sp.; strain GC 2243): 2 µg/mL (≈ 1.31 µM); MIC Enterococcus faecalis (GC 2691) (Enterococcus sp.; strain GC 2691): 4 µg/mL (≈ 2.61 µM); MIC Enterococcus faecalis (GC 3059) (Enterococcus sp.; strain GC 3059): 4 µg/mL (≈ 2.61 µM); MIC Enterococcus faecalis (GC 4552) (Enterococcus sp.; strain GC 4552): 2 µg/mL (≈ 1.31 µM); MIC Enterococcus faecalis (GC 4553) (Enterococcus sp.; strain GC 4553): 1 µg/mL (≈ 0.653 µM); MIC Enterococcus faecalis (GC 4554) (Enterococcus sp.; strain GC 4554): 2 µg/mL (≈ 1.31 µM); MIC Enterococcus faecium (GC 4556) (Enterococcus sp.; strain GC 4556): 4 µg/mL (≈ 2.61 µM); MIC Enterococcus faecium (GC 4557) (Enterococcus sp.; strain GC 4557): 4 µg/mL (≈ 2.61 µM); MIC Enterococcus avium (GC 4558) (Enterococcus sp.; strain GC 4558): 4 µg/mL (≈ 2.61 µM); MIC Enterococcus faecalis (GC 6189) (Enterococcus sp.; strain GC 6189): 2 µg/mL (≈ 1.31 µM); MIC Escherichia coli (ATCC 25922) (Escherichia coli; strain ATCC 25922): >64 µg/mL; MIC Escherichia coli (GC 4559) (Escherichia coli; strain GC 4559): >64 µg/mL; MIC Escherichi coli (GC 4560) (Escherichia coli; strain GC 4560): 16 µg/mL (≈ 10.4 µM); MIC Staphylococcus aureus (ATCC 29213) (Staphylococcus sp.; 5×10^5 CFU/mL): 4 µg/mL (≈ 2.61 µM); MIC Staphylococcus aureus (GC 1131) (Staphylococcus sp.; 5×10^5 CFU/mL): 4 µg/mL (≈ 2.61 µM); MIC Staphylococcus aureus (GC 3051) (Staphylococcus sp.; 5×10^5 CFU/mL): 4 µg/mL (≈ 2.61 µM); MIC Staphylococcus aureus (GC 3053) (Staphylococcus sp.; 5×10^5 CFU/mL): 4 µg/mL (≈ 2.61 µM); MIC Staphylococcus aureus (GC 4541) (Staphylococcus sp.; 5×10^5 CFU/mL): 4 µg/mL (≈ 2.61 µM); MIC Staphylococcus aureus (GC 4542) (Staphylococcus sp.; 5×10^5 CFU/mL): 4 µg/mL (≈ 2.61 µM); MIC Staphylococcus aureus (GC 4544) (Staphylococcus sp.; 5×10^5 CFU/mL): 4 µg/mL (≈ 2.61 µM); MIC Staphylococcus aureus (GC 4545) (Staphylococcus sp.; 5×10^5 CFU/mL): 4 µg/mL (≈ 2.61 µM); MIC Staphylococcus aureus (ATCC 29213) (Staphylococcus sp.; strain ATCC 29213): 4 µg/mL (≈ 2.61 µM); MIC Staphylococcus aureus (GC 1131) (Staphylococcus sp.; strain GC 1131): 4 µg/mL (≈ 2.61 µM); MIC Staphylococcus aureus (GC 3051) (Staphylococcus sp.; strain GC 3051): 4 µg/mL (≈ 2.61 µM); MIC Staphylococcus aureus (GC 3053) (Staphylococcus sp.; strain GC 3053): 4 µg/mL (≈ 2.61 µM); MIC Staphylococcus aureus (GC 4541) (Staphylococcus sp.; strain GC 4541): 4 µg/mL (≈ 2.61 µM); MIC Staphylococcus aureus (GC 4542) (Staphylococcus sp.; strain GC 4542): 4 µg/mL (≈ 2.61 µM); MIC Staphylococcus aureus-SMITH (GC 4543) (Staphylococcus sp.; strain GC 4543): 4 µg/mL (≈ 2.61 µM); MIC Staphylococcus aureus (GC 4544) (Staphylococcus sp.; strain GC 4544): 4 µg/mL (≈ 2.61 µM); MIC Staphylococcus aureus (GC 4545) (Staphylococcus sp.; strain GC 4545): 4 µg/mL (≈ 2.61 µM); MIC Staphylococcus haemolyticus (GC 4546) (Staphylococcus sp.; strain GC 4546): 8 µg/mL (≈ 5.22 µM); MIC Coagulase Negative Staphylococcus (GC 4547) (Staphylococcus sp.; strain GC 4547): 8 µg/mL (≈ 5.22 µM); MIC Coagulase Negative Staphylococcus (GC 4548) (Staphylococcus sp.; strain GC 4548): 2 µg/mL (≈ 1.31 µM); MIC Coagulase Negative Staphylococcus (GC 4549) (Staphylococcus sp.; strain GC 4549): 1 µg/mL (≈ 0.653 µM); MIC Coagulase Negative Staphylococcus (GC 4551) (Staphylococcus sp.; strain GC 4551): 2 µg/mL (≈ 1.31 µM); MIC Coagulase Negative Staphylococcus (GC 6257) (Staphylococcus sp.; strain GC 6257): 2 µg/mL (≈ 1.31 µM); MIC Streptococcus agalactiae (GC 4564) (Streptococcus sp.; [1]): <0.06 µg/mL; MIC Streptococcus pneumoniae (ATCC 6301) (Streptococcus sp.; [1]): <0.06 µg/mL; MIC Streptococcus pneumoniae (GC 1894) (Streptococcus sp.; [1]): <0.06 µg/mL; MIC Streptococcus pneumoniae (GC 4565) (Streptococcus sp.; [1]): <0.06 µg/mL; MIC Streptococcus pyogenes (GC 4563) (Streptococcus sp.; [1]): 0.5 µg/mL (≈ 0.326 µM); MIC Streptococcus pneumoniae (ATCC 6301) (Streptococcus sp.; strain ATCC 6301): <0.06 µg/mL; MIC Streptococcus pneumoniae (GC 1894) (Streptococcus sp.; strain GC 1894): <0.06 µg/mL; MIC Streptococcus pyogenes (GC 4563) (Streptococcus sp.; strain GC 4563): 0.5 µg/mL (≈ 0.326 µM); MIC Streptococcus agalactiae (GC 4564) (Streptococcus sp.; strain GC 4564): <0.06 µg/mL; MIC Streptococcus pneumoniae (GC 4565) (Streptococcus sp.; strain GC 4565): <0.06 µg/mL
